# Results as given in US9012404B2, “Compositions and methods for cardiac tissue protection and regeneration” (3D Matrix, Inc., priority 2006, dated 2015).
# Entries after “also recorded” stand apart in the source; their conditions may differ.
# Experiments:
# rabbits [1] = test: Rabbit Pyrogenicity (ISO-10993-11); format: in vivo; details: intravenous injection of extract at 10 mL/kg
# Description: The purpose of the test was to detect the risk of a patient to a febrile reaction as a result of the administration of the test article extract. The test article was prepared by mixing 9 ml of the test article with 9 mL of 0.9% USP Sodium Chloride for Injection (NaCl) and the resulting gel extracted at a ration of 0.2 gm per 1.0 mL. The test article extract was administered by intravenous injection at 10 mL/kg. The rectal temperatures of the injected rabbits were compared with the temperature of a control rabbit similarly injected with 0.9% USP Sodium Chloride for Injection (NaCl). The base-line temperatures of the rabbits, determined no more than 30 minutes prior to injection of the test article extract, were used to exclude rabbits whose body temperatures vary by more than 1° C. from each other and whose temperatures are greater than 39.8° C. Body temperatures were recorded at 30 minute intervals between 1 and 3 hours subsequent to injection.
# [2] = test system: L929 mouse fibroblast cell culture; test: Cytotoxicity: Agar Diffusion ISO 10993-5; format: cell-based; details: L929 mouse fibroblast monolayer
# From the text: (§1) Standard in vitro toxicology studies, including EN/ISO tests for cytotoxicity and hemocompatibility, have been completed. The tests below were completed at a FDA certified toxicology testing company (Toxikon Corp, Bedford, Mass.) using established standards of measure on a CardioMatrix material (Tables 3 and 4). The CardioMatrix solution tested in this example comprised various concentrations of CardioMatrix powder in substantially sucrose free aqueous solution.
# The Agar Diffusion test (ISO 10993-5) measures a material's effect on cell cultures, which are extremely sensitive to minute quantities of leachable chemicals and readily display characteristic signs of toxicity in the presence of potentially harmful leachables. The biological reactivity of a mammalian monolayer, L929 mouse fibroblast cell culture, in response to the test article was determined as “no-reactivity” in tests.
# [3] = test system: rabbit blood (red blood cells); test: Hemolysis: Direct Contact (ISO 10993-4); format: cell-based; details: rabbit blood in direct contact, triplicate
# From the text: as §1
# The hemolysis test (Direct Contact, ISO-10993-4) measures the ability of a material to cause red blood cells to rupture. This test is derived from well-established NIH protocols and is performed in triplicate. This test uses rabbit blood in direct contact with the test material and the degree of hemolysis is measured spectrophotometrically.
# rabbits [4] = details: rabbit, in vivo
# Description: A 0.5% w/v peptide CardioMatrix solution was extracted in NaCl and CSO at a ratio of 0.2 gm per 1.0 mL at 70±2° C. for 24 hours. […] Three rabbits were injected intracutaneously, using one side of the animal for the test article extracts and the other side for the control extracts, at 0.2 mL per site. The injected sites were examined at 24, 48, and 72 hours post inoculation for gross evidence of tissue reaction such as erythema, edema, and necrosis. A Primary Irritation Index of 0.5 or less will be considered a negligible irritant, where 0.5 to <2 are slight irritants, 2 to <5 are moderate irritants, and >5 are severe irritants.
# [5] = test system: paravertebral muscle of New Zealand white rabbits; details: in vivo
# From the text: This test assesses the local effects of material on contact with living tissue. Test article was implanted into paravertebral muscle of 3 New Zealand white rabbits, with negative control (GelFoam) implanted in the contralateral muscle of each animal. Healing was allowed for 2 weeks. Animals were sacrificed and implants excised. Excised implants were examined macroscopically with a magnifying lens and fixed in formalin. Histologic slides of hematoxylin and eosin (H&E) and Mason's Trichrome stained sections were prepared, studied microscopically by a board-certified veterinary pathologist, and evaluated on a scale of 0-3. CardioMatrix implants retained the initial implant volume, collagen fibers, and vascularization of the injection site.
# [6] = test system: prothrombin coagulation time of human plasma; test: Prothrombin Time Assay, Human Plasma (ISO 10993-4)
# From the text: as §1
# Prothrombin Time (Human Plasma, ISO 10993-4) measures the effect of a test article extract on human blood coagulation time. This assay has become a suitable clinical means of determining the presence and functioning ability of prothrombin in the process of coagulation.
# [7] = design: species or system Sprague Dawley rats; details: rat, in vivo
# From the text: To measure the local and whole animal distribution a 14C, carbon radiolabeled version of a Cardiomatrix was generated. The radiolabeled version was internally labeled at the third alanine site (Acetyl-(RADA)-(R-[^14C(U)-Ala]-D-A)-(RADA)2-CONH2) as opposed to a labeled acetyl group which could be cleaved off, in order to better characterize the adsorption, degradation, metabolism and excretion (ADME) of the CardioMatrix material in vivo. The radiolabeled material was then implanted into Sprague Dawley rats in a femur defect model. Urine and stool samples were collected and the radioactivity was counted.
compound,measurement,setting,value
"CC(=O)N[C@@H](CCCNC(=N)N)C(=O)N[C@@H](C)C(=O)N[C@@H](CC(=O)O)C(=O)N[C@@H](C)C(=O)N[C@@H](CCCNC(=N)N)C(=O)N[C@@H](C)C(=O)N[C@@H](CC(=O)O)C(=O)N[C@@H](C)C(=O)N[C@@H](CCCNC(=N)N)C(=O)N[C@@H](C)C(=O)N[C@@H](CC(=O)O)C(=O)N[C@@H](C)C(=O)N[C@@H](CCCNC(=N)N)C(=O)N[C@@H](C)C(=O)N[C@@H](CC(=O)O)C(=O)N[C@@H](C)C(N)=O [CardioMatrix, RADARADARADARADA]","Rabbit pyrogenicity, febrile reaction",rabbits [1],None of the animals injected with the test article extract exhibited signs of pyrogenic response; also recorded: No effect on animals; also recorded: No febrile reaction from any animal
same,"Cytotoxicity: Agar Diffusion, biological reactivity",[2],no-reactivity; also recorded: Non-cytotoxic
same,Hemolysis: Direct Contact,[3],Non-hemolytic
same,Irritant class by Primary Irritation Index,rabbits [4],“Negligible”
same,Signs of erythema or edema at injected sites,rabbits [4],did not exhibit signs of erythema or edema
same,Rabbit Muscle Implant toxicity score,[5],0.13
same,Initiation of coagulation cascades (hemocompatibility tests),[6]; direct contact with blood and plasma,do not initiate coagulation cascades
same,Effect on prothrombin coagulation time,"[6]; test article extract, human plasma",did not have an adverse effect
same,Time until degraded and excreted,[7],≤ 28 days
